Starred links: 1 amine or outer side, 2 acyl side, 3 side chain; linkers in the order of their positions; H or OH if unused. Non-standard residues stand in square brackets, D forms with d. Residues, ends and D or L forms follow the SMILES beside them. Groups on a side chain read outwards from the residue. *: point of attachment. γGlu = O=C(O)[C@H](CCC(=O)[*:2])N[*:1]; Stearoyl = CCCCCCCCCCCCCCCCCC(=O)*; Palmitoyl = CCCCCCCCCCCCCCCC(=O)*; αMeF = C[C@](N)(Cc1ccccc1)C(=O)O; Myristoyl = CCCCCCCCCCCCCC(=O)*; PEG2 = NCCOCCOCCC(=O)O; Aib = CC(C)(N)C(=O)O
Assays:
[1] = target: human glucagon receptor (hGCGR) (Homo sapiens, UniProt P47871); assay: cAMP production (HTRF) in CHO cells expressing hGCGR; type: cell-based; set-up: expressed in transfected cells; conditions: Table 6, peptides modified at position 17; cAMP in CHO hGCGR cells; geometric mean; read-out: hGluc-R EC50
Sequence of human glucagon receptor (hGCGR) (P47871 26-477): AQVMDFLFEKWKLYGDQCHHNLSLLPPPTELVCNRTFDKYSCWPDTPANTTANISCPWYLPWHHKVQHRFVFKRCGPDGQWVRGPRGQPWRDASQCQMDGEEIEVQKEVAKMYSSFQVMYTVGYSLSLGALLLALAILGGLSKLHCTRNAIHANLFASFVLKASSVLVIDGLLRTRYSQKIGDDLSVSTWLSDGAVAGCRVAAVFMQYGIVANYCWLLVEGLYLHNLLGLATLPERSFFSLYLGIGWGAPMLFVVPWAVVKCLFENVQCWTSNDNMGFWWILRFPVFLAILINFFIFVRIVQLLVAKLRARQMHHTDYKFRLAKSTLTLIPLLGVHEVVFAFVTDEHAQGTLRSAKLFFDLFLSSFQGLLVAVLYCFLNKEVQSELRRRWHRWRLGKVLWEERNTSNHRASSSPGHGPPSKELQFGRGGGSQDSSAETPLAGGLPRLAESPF
Outline: (§1)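 Potency values represent EC50 from 4-parameter logistic curves of HTRF % Delta F signal. Receptor-expressing CHO cells (hGCGR 2×10^5 cells/mL, hGLP-1R 1×10^5 cells/mL) were exposed for 30 min at room temperature before two-step cAMP detection.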

[2] = target: human GLP-1 receptor (hGLP-1R) (Homo sapiens, UniProt P43220); assay: cAMP production (HTRF) in CHO cells expressing hGLP-1R; type: cell-based; set-up: expressed in transfected cells; conditions: for EC50: Table 6, peptides modified at position 17, cAMP in CHO hGLP-1R cells, geometric mean, read-out: hGLP-1R EC50; for % Relative Potency Ratio: Table 6, % GLP-1R activity relative to GLP-1 / % GlucR activity relative to glucagon
Sequence of human GLP-1 receptor (hGLP-1R) (P43220 24-463): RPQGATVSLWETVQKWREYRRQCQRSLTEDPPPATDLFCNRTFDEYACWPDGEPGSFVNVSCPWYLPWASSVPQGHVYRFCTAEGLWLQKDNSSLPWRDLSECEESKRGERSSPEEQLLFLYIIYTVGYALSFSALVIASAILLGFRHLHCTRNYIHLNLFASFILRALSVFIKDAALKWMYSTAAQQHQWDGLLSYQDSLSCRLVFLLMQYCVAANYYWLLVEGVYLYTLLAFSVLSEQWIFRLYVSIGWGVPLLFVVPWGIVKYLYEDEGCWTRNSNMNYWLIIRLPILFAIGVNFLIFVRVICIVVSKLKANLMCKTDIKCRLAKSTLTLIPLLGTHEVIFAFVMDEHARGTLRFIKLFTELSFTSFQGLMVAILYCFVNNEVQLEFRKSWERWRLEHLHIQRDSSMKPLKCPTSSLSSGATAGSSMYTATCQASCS
Outline: as §1

| EC50 [1] [pM] | EC50 [2] [pM] | % Relative Potency Ratio [2] | SMILES |
| --- | --- | --- | --- |
| 4.6 | 1.61 | 5.6 | CCCCCCCCCCCCCCCC(=O)N[C@@H](CCC(=O)N[C@@H](CCC(=O)NCCOCCOCCC(=O)NCCOCCOCCC(=O)NCCCC[C@H](NC(=O)[C@H](CO)NC(=O)[C@H](CC(=O)O)NC(=O)[C@H](CC(C)C)NC(=O)[C@@H](NC(=O)[C@H](CCCCN)NC(=O)[C@H](CO)NC(=O)[C@@H](NC(=O)[C@H](CC(=O)O)NC(=O)[C@H](CO)NC(=O)[C@@H](NC(=O)[C@](C)(Cc1ccccc1)NC(=O)[C@H](CO)NC(=O)CNC(=O)[C@H](CCC(N)=O)NC(=O)[C@H](CO)NC(=O)[C@@H](N)Cc1c[nH]cn1)[C@@H](C)O)C(C)C)[C@@H](C)CC)C(=O)N[C@@H](C)C(=O)N[C@@H](C)C(=O)N[C@@H](CCC(N)=O)C(=O)N[C@@H](CC(=O)O)C(=O)N[C@@](C)(Cc1ccccc1)C(=O)N[C@H](C(=O)N[C@@H](CCC(N)=O)C(=O)N[C@H](C(=O)N[C@H](C(=O)N[C@@H](C)C(=O)NCC(N)=O)[C@@H](C)CC)[C@@H](C)CC)C(C)C)C(=O)O)C(=O)O [Peptide 113] (H-HSQGS[αMeF]TSDVSKILDSK([PEG2-PEG2-γGlu-γGlu-Palmitoyl])AAQD[αMeF]VQIIAG-NH2; N-terminus assumed) |
| 2.65 | 3.65 | 1.4 | CCCCCCCCCCCCCCCC(=O)N[C@@H](CCC(=O)N[C@@H](CCC(=O)NCCOCCOCCC(=O)NCCOCCOCCC(=O)NCCCC[C@H](NC(=O)[C@H](CO)NC(=O)[C@H](CC(=O)O)NC(=O)[C@H](CC(C)C)NC(=O)[C@@H](NC(=O)[C@H](CCCCN)NC(=O)[C@H](CO)NC(=O)[C@@H](NC(=O)[C@H](CC(=O)O)NC(=O)[C@H](CO)NC(=O)[C@@H](NC(=O)[C@](C)(Cc1ccccc1)NC(=O)[C@H](CO)NC(=O)CNC(=O)[C@H](CCC(N)=O)NC(=O)[C@H](CO)NC(=O)[C@@H](N)Cc1c[nH]cn1)[C@@H](C)O)C(C)C)[C@@H](C)CC)C(=O)N[C@@H](C)C(=O)N[C@@H](C)C(=O)N[C@@H](CCC(N)=O)C(=O)N[C@@H](CC(=O)O)C(=O)N[C@@](C)(Cc1ccccc1)C(=O)N[C@H](C(=O)N[C@@H](CCC(=O)O)C(=O)N[C@H](C(=O)N[C@H](C(=O)N[C@@H](C)C(=O)N[C@@H](CC(N)=O)C(N)=O)[C@@H](C)CC)[C@@H](C)CC)C(C)C)C(=O)O)C(=O)O [Peptide 114] (H-HSQGS[αMeF]TSDVSKILDSK([PEG2-PEG2-γGlu-γGlu-Palmitoyl])AAQD[αMeF]VEIIAN-NH2; N-terminus assumed) |
| 10.3 | 24.3 | 0.8 | CCCCCCCCCCCCCCCC(=O)N[C@@H](CCC(=O)N[C@@H](CCC(=O)NCCOCCOCCC(=O)NCCOCCOCCC(=O)NCCCC[C@H](NC(=O)[C@H](CO)NC(=O)[C@H](CC(=O)O)NC(=O)[C@H](CC(C)C)NC(=O)[C@@H](NC(=O)[C@H](CCCCN)NC(=O)[C@H](CO)NC(=O)[C@@H](NC(=O)[C@H](CC(=O)O)NC(=O)[C@H](CO)NC(=O)[C@@H](NC(=O)[C@](C)(Cc1ccccc1)NC(=O)[C@H](CO)NC(=O)CNC(=O)[C@H](CCC(N)=O)NC(=O)[C@H](CO)NC(=O)[C@@H](N)Cc1c[nH]cn1)[C@@H](C)O)C(C)C)[C@@H](C)CC)C(=O)N[C@@H](C)C(=O)N[C@@H](C)C(=O)N[C@@H](CCC(N)=O)C(=O)N[C@@H](CC(=O)O)C(=O)N[C@@](C)(Cc1ccccc1)C(=O)N[C@H](C(=O)N[C@@H](CCC(=O)O)C(=O)N[C@@H](Cc1c[nH]c2ccccc12)C(=O)N[C@H](C(=O)N[C@H](C(=O)N[C@@H](CC(N)=O)C(=O)N[C@H](C(N)=O)[C@@H](C)O)[C@@H](C)CC)[C@@H](C)CC)C(C)C)C(=O)O)C(=O)O [Peptide 116] (H-HSQGS[αMeF]TSDVSKILDSK([PEG2-PEG2-γGlu-γGlu-Palmitoyl])AAQD[αMeF]VEWIINT-NH2; N-terminus assumed) |
| 1.2 | 1.07 | 2.2 | CCCCCCCCCCCCCCCC(=O)N[C@@H](CCC(=O)N[C@@H](CCC(=O)NCCOCCOCCC(=O)NCCOCCOCCC(=O)NCCCC[C@H](NC(=O)[C@H](CO)NC(=O)[C@H](CC(=O)O)NC(=O)[C@H](CC(C)C)NC(=O)[C@@H](NC(=O)[C@H](CCCCN)NC(=O)[C@H](CO)NC(=O)[C@@H](NC(=O)[C@H](CC(=O)O)NC(=O)[C@H](CO)NC(=O)[C@@H](NC(=O)[C@](C)(Cc1ccccc1)NC(=O)[C@H](CO)NC(=O)CNC(=O)[C@H](CCC(N)=O)NC(=O)[C@H](CO)NC(=O)[C@@H](N)Cc1c[nH]cn1)[C@@H](C)O)C(C)C)[C@@H](C)CC)C(=O)N[C@@H](C)C(=O)N[C@@H](C)C(=O)N[C@@H](CCC(N)=O)C(=O)N[C@@H](CC(=O)O)C(=O)N[C@@](C)(Cc1ccccc1)C(=O)N[C@H](C(=O)N[C@@H](CCC(N)=O)C(=O)NC(C)(C)C(=O)N[C@H](C(=O)N[C@H](C(=O)N[C@@H](CC(N)=O)C(=O)N[C@H](C(N)=O)[C@@H](C)O)[C@@H](C)CC)[C@@H](C)CC)C(C)C)C(=O)O)C(=O)O [Peptide 118] (H-HSQGS[αMeF]TSDVSKILDSK([PEG2-PEG2-γGlu-γGlu-Palmitoyl])AAQD[αMeF]VQ[Aib]IINT-NH2) |
| 1.7 | 1.39 | 2.4 | CCCCCCCCCCCCCC(=O)N[C@@H](CCC(=O)N[C@@H](CCC(=O)NCCOCCOCCC(=O)NCCOCCOCCC(=O)NCCCC[C@H](NC(=O)[C@H](CO)NC(=O)[C@H](CC(=O)O)NC(=O)[C@H](CC(C)C)NC(=O)[C@@H](NC(=O)[C@H](CCCCN)NC(=O)[C@H](CO)NC(=O)[C@@H](NC(=O)[C@H](CC(=O)O)NC(=O)[C@H](CO)NC(=O)[C@@H](NC(=O)[C@](C)(Cc1ccccc1)NC(=O)[C@H](CO)NC(=O)CNC(=O)[C@H](CCC(N)=O)NC(=O)[C@H](CO)NC(=O)[C@@H](N)Cc1c[nH]cn1)[C@@H](C)O)C(C)C)[C@@H](C)CC)C(=O)N[C@@H](C)C(=O)N[C@@H](C)C(=O)N[C@@H](CCC(N)=O)C(=O)N[C@@H](CC(=O)O)C(=O)N[C@@](C)(Cc1ccccc1)C(=O)N[C@H](C(=O)N[C@@H](CCC(N)=O)C(=O)NC(C)(C)C(=O)N[C@H](C(=O)N[C@H](C(=O)N[C@@H](CC(N)=O)C(=O)N[C@H](C(N)=O)[C@@H](C)O)[C@@H](C)CC)[C@@H](C)CC)C(C)C)C(=O)O)C(=O)O [Peptide 119] (H-HSQGS[αMeF]TSDVSKILDSK([PEG2-PEG2-γGlu-γGlu-Myristoyl])AAQD[αMeF]VQ[Aib]IINT-NH2; N-terminus assumed) |
| 2.62 | 1.81 | 2.9 | CCCCCCCCCCCCCCCCCC(=O)N[C@@H](CCC(=O)NCCOCCOCCC(=O)NCCOCCOCCC(=O)NCCCC[C@H](NC(=O)[C@H](CO)NC(=O)[C@H](CC(=O)O)NC(=O)[C@H](CC(C)C)NC(=O)[C@@H](NC(=O)[C@H](CCCCN)NC(=O)[C@H](CO)NC(=O)[C@@H](NC(=O)[C@H](CC(=O)O)NC(=O)[C@H](CO)NC(=O)[C@@H](NC(=O)[C@](C)(Cc1ccccc1)NC(=O)[C@H](CO)NC(=O)CNC(=O)[C@H](CCC(N)=O)NC(=O)[C@H](CO)NC(=O)[C@@H](N)Cc1c[nH]cn1)[C@@H](C)O)C(C)C)[C@@H](C)CC)C(=O)N[C@@H](C)C(=O)N[C@@H](C)C(=O)N[C@@H](CCC(N)=O)C(=O)N[C@@H](CC(=O)O)C(=O)N[C@@](C)(Cc1ccccc1)C(=O)N[C@H](C(=O)N[C@@H](CCC(N)=O)C(=O)NC(C)(C)C(=O)N[C@H](C(=O)N[C@H](C(=O)N[C@@H](CC(N)=O)C(=O)N[C@H](C(N)=O)[C@@H](C)O)[C@@H](C)CC)[C@@H](C)CC)C(C)C)C(=O)O [Peptide 120] (H-HSQGS[αMeF]TSDVSKILDSK([PEG2-PEG2-γGlu-Stearoyl])AAQD[αMeF]VQ[Aib]IINT-NH2; N-terminus assumed) |

— patent publication US20250353891A1 (MEDIMMUNE LIMITED, priority 2022, published 2025)
